The text below walks through data of patent US7563791B2, “Pyrrolotriazine derivatives useful for treating hyper-proliferative disorders and diseases associated with angiogenesis” (Bayer Pharmaceuticals Corporation, priority 2004, dated 2009).

Common to all, as to format: cell-based
For assay [1], the system named is VEGF stimulated Phospho-ERK in HUVEC. Briefly: Growth factor stimulated p-ERK assay in HUVECs (VEGF stimulation, ERK1/2 Bioplex). The conditions noted are these: Homo sapiens, compound 2 hrs, then 50 ng/ml VEGF 10 min. On the procedure:
Growth Factor Stimulated p-ERK assay in HUVECs
Exponentially growing human endothelial HUVECs cells (human umbilical vein endothelial cells, cat# CC-2517, Cambrex, Walkersville, Md.) were seeded at twenty five thousand cells/well in 96 well plates in EBM-2 MV medium with growth factors (cat# CC-3202, Cambrex) and grown at 37° C. in 5% CO2. Sixteen hours post-plating, the cells were changed to serum-free medium (RPMI 1640 containing 0.1% BSA (bovine serum albumin) and compounds were added at different concentrations for 2 hrs, after which the cells were stimulated for 10 min with 50 ng/ml of either VEGF (vascular endothelial growth factor, Protein Sciences, Meriden, Conn.) or bFGF (basic fibroblast growth factor cat# PHG0026, Biosource International, Camarillo, Calif.). The rest of the assay was performed per manufacturer indications for the ERK½ Bioplex assay (cat#171-304004, Bio-Rad, Hercules, Calif.). After removing culture medium by aspiration, the cells were quickly rinsed with 100 μl of cell wash buffer A to stop treatment reaction. Eighty microliters of cell lysis buffer were then immediately added to each well of the 96 well plate which was put on ice. Cells in each well were lysed by pipetting up and down 5 times with a multi-channel pipet. The plate was then agitated on a microtiter plate shaker at 300 rpm for 20 min at 4° C. Cellular debris were pelleted by centrifugation at 4500 g for 15 min at 4° C. and the supernatant was collected. Forty five microliters of supernatant was diluted with an equal volume of Bio-Plex phosphoprotein assay Buffer B, The coupled and color coated beads were added into a 96 well filter plate, and the prepared lysates were added. The beads and lysate mixture was incubated at room temperature for 15-18 hrs. The following day, the plate was vacuum-filtered and then washed 3×. Twenty-five microliters of detection antibody solution were added to each well and the plate was then incubated for 30 min at room temperature. The plate was then vaccum-filtered and washed as described previously. Fifty microliters of streptavidin-PE solution was added to each well, the plate was incubated for 10 min at room temperature and then was then vaccum-filtered and washed as described above. One hundred twenty-five microliters of resuspension buffer was added to each well and data were acquired on the Luminex 100 instrument (Bio-Rad).

The next assay deals with HCT116 cells. Description: Tumor cell proliferation (Alamar Blue), HCT116. The conditions noted are these: Homo sapiens, HCT-116, 72 h; for IC50: bounds given in μM. On the procedure: (§1) Human tumor cells (e.g., HCT116 or MDA-MB-231 cells), are seeded in a Costar 96-well plate at 3.0×10^3 cells/well and grown in 150 μl of RPMI complete media (Invitrogen Corporation, Grand Island, N.Y.) containing 10% fetal bovine serum (Hyclone, Logan, Utah) at 37° C. for 16 h in an incubator with 5% CO2. To each well, 50 μl of additional growth media containing 40 μM to 18 nM concentrations of compound with 0.4% DMSO is added. Cells are grown for another 72 h at 37° C. with 5% CO2. 20 μl of Alamar Blue (Trek Diagnostic Systems, Inc., Cleveland, Ohio) reagent is added to each well and incubated for 3 h at 37° C. Plates are read in a SpectraMax Gemini (Molecular Devices, Calif.) with 544 nm excitation and 590 nm emission wavelength. IC50 values are determined by linear regression analysis of log drug concentration versus percent inhibition.
On the technique in general: Alamar Blue is a resazurin reagent that responds to reducing activity.

Another assay deals with MDA-MB-231 cells. Briefly: Tumor cell proliferation (Alamar Blue), MDA-MB-231. The conditions noted are these: Homo sapiens, MDA-MB-231, 72 h; for IC50: bounds given in μM. On the procedure: as §1

pIC50: −log10 of the molar value. Some results are limits rather than exact numbers.

`Nc1ncnn2cc(C(=O)NCC(F)(F)F)c(-c3ccc(NC(=O)Nc4cc(C(F)(F)F)ccn4)cc3)c12` [Example 93, 4-amino-N-(2,2,2-trifluoroethyl)-5-{4-[({[4-(trifluoromethyl)pyridin-2-yl]amino}carbonyl)amino]phenyl}pyrrolo[2,1-f][1,2,4]triazine-6-carboxamide] returned an inhibition at 0.1 µM in assay [1] (@ 100 nM) below 50%. Besides, in assay [1] (@ 1 μM), the inhibition at 1 µM was above 50%. The pIC50 is above 6.30 in the assay on HCT116 cells and below 6.30 with MDA-MB-231 cells. The same molecule displayed a half-maximal inhibitory concentration (IC50) in the assay on MDA-MB-231 cells below 1.5 µM.

In turn, `CC(C)(CN1CCOCC1)NC(=O)c1cn2ncnc(N)c2c1-c1ccc(NC(=O)Nc2cc(C(F)(F)F)ccc2Cl)cc1` [Example 149, 4-amino-5-{4-[({[2-chloro-5-(trifluoromethyl)phenyl]amino}carbonyl)amino]phenyl}-N-(1,1-dimethyl-2-morpholin-4-ylethyl)pyrrolo[2,1-f][1,2,4]triazine-6-carboxamide] came in with an IC50 in the assay with HCT116 cells of 1.5 to 5 µM. In the assay on MDA-MB-231 cells, this molecule showed a pIC50 below 6.30 and a concentration for half-maximal inhibition (IC50) below 1.5 µM.

For `N#Cc1cn2ncnc(N)c2c1-c1ccc(NC(=O)Nc2ccnc(C(F)(F)F)c2)cc1` [Example 153, N-[4-(4-amino-6-cyanopyrrolo[2,1-f][1,2,4]triazin-5-yl)phenyl]-N′-[2-(trifluoromethyl)pyridin-4-yl]urea], the IC50 with HCT116 cells and in the assay with MDA-MB-231 cells was 5 to 10 µM in each case.

With `Nc1ncnn2cc(-c3cnco3)c(-c3ccc(NC(=O)Nc4cc(C(F)(F)F)ccn4)cc3)c12` [Example 156, N-{4-[4-amino-6-(1,3-oxazol-5-yl)pyrrolo[2,1-f][1,2,4]triazin-5-yl]phenyl}-N′-[4-(trifluoromethyl)pyridin-2-yl]urea], in the assay with HCT116 cells, the pIC50 is below 6.30 and the IC50 is below 1.5 µM. Further, the pIC50 in the assay on MDA-MB-231 cells is above 6.30.

For the molecule `CC(C)(C)c1cc(NC(=O)Nc2ccc(-c3c(C#N)cn4ncnc(N)c34)cc2)on1` [Example 161, N-[4-(4-amino-6-cyanopyrrolo[2,1-f][1,2,4]triazin-5-yl)phenyl]-N′-(3-tert-butylisoxazol-5-yl)urea], in the assay with HCT116 cells, the pIC50 is below 6.30 and the IC50 is below 1.5 µM. The IC50 in the assay with MDA-MB-231 cells lay in the range of 1.5 to 5 µM.

Turning to `COCc1cn2ncnc(N)c2c1-c1ccc(NC(=O)Nc2cc(C(C)(C)C)nn2-c2ccc(F)cc2)cc1` [Example 217, N-{4-[4-amino-6-(methoxymethyl)pyrrolo[2,1-f][1,2,4]triazin-5-yl]phenyl}-N′-[3-tert-butyl-1-(4-fluorophenyl)-1H-pyrazol-5-yl]urea], the IC50 is 1.5 to 5 µM with HCT116 cells and below 1.5 µM in the assay on MDA-MB-231 cells. The pIC50 in the assay on MDA-MB-231 cells is below 6.30.

Turning to `Nc1ncnn2cc(CN3CCOCC3)c(-c3ccc(NC(=O)Nc4cc(C(F)(F)F)ccn4)cc3)c12` [Example 225, N-{4-[4-amino-6-(morpholin-4-ylmethyl)pyrrolo[2,1-f][1,2,4]triazin-5-yl]phenyl}-N′-[4-(trifluoromethyl)pyridin-2-yl]urea], the IC50 in the assay with HCT116 cells and in the assay with MDA-MB-231 cells was 1.5 to 5 µM in each case.

As for `CCOC(=O)c1coc(-c2cn3ncnc(N)c3c2-c2ccc(NC(=O)Nc3cc(C(F)(F)F)ccn3)cc2)n1` [Example 232, ethyl 2-(4-amino-5-{4-[({[4-(trifluoromethyl)pyridin-2-yl]amino}carbonyl)amino]phenyl}pyrrolo[2,1-f][1,2,4]triazin-6-yl)-1,3-oxazole-4-carboxylate], the IC50 with HCT116 cells and in the assay with MDA-MB-231 cells was 1.5 to 5 µM throughout.

For `Nc1ncnn2cc(-c3ncco3)c(-c3ccc(NC(=O)Nc4cc(C(F)(F)F)ccn4)cc3)c12` [Example 235, N-{4-[4-amino-6-(1,3-oxazol-2-yl)pyrrolo[2,1-f][1,2,4]triazin-5-yl]phenyl}-N′-[4-(trifluoromethyl)pyridin-2-yl]urea], the pIC50 in the assay on HCT116 cells was above 6.30. Further, in the assay with MDA-MB-231 cells, the pIC50 was below 6.30 and the half-maximal inhibitory concentration (IC50) was below 1.5 µM.

`CCOC(=O)c1coc(-c2cn3ncnc(N)c3c2-c2ccc(NC(=O)Nc3cc(C(F)(F)F)ccc3F)cc2)n1` [Example 237, ethyl 2-(4-amino-5-{4-[({[2-fluoro-5-(trifluoromethyl)phenyl]amino}carbonyl)amino]phenyl}pyrrolo[2,1-f][1,2,4]triazin-6-yl)-1,3-oxazole-4-carboxylate]: the pIC50 in the assay on HCT116 cells was above 6.30. Besides, the 50% inhibitory concentration (IC50) in the assay on MDA-MB-231 cells lay within 1.5 to 5 µM.

Regarding `Nc1ncnn2cc(-c3nc(CO)co3)c(-c3ccc(NC(=O)Nc4cc(C(F)(F)F)ccc4F)cc3)c12` [Example 241, N-(4-{4-amino-6-[4-(hydroxymethyl)-1,3-oxazol-2-yl]pyrrolo[2,1-f][1,2,4]triazin-5-yl}phenyl)-N′-[2-fluoro-5-(trifluoromethyl)phenyl]urea], in the assay on HCT116 cells, the pIC50 was below 6.30 and the concentration for half-maximal inhibition (IC50) was below 1.5 µM. For the same molecule, the IC50 in the assay with MDA-MB-231 cells lay within 1.5 to 5 µM.

As for `CCOC(=O)c1cn2ncnc(N)c2c1-c1ccc(NC(=O)Nc2cc(C(F)(F)F)ccn2)c(F)c1` [Example 242, ethyl 4-amino-5-{3-fluoro-4-[({[4-(trifluoromethyl)pyridin-2-yl]amino}carbonyl)amino]phenyl}pyrrolo[2,1-f][1,2,4]triazine-6-carboxylate], the IC50 in the assay with HCT116 cells and with MDA-MB-231 cells was 1.5 to 5 µM each time.

In turn, `COCCOCc1cn2ncnc(N)c2c1-c1ccc(NC(=O)Nc2cc(C(C)(C)C)nn2-c2ccc(F)cc2)cc1` [Example 248, N-(4-{4-amino-6-[(2-methoxyethoxy)methyl]pyrrolo[2,1-f][1,2,4]triazin-5-yl}phenyl)-N′-[3-tert-butyl-1-(4-fluorophenyl)-1H-pyrazol-5-yl]urea] yielded a half-maximal inhibitory concentration (IC50) in the assay with HCT116 cells of 1.5 to 5 µM. In the assay with MDA-MB-231 cells, this molecule gave a pIC50 below 6.30 and an IC50 below 1.5 µM.

`COCc1cn2ncnc(N)c2c1-c1ccc(NC(=O)Nc2cc(C(F)(F)F)ccc2F)c(F)c1` [Example 254, N-{4-[4-amino-6-(methoxymethyl)pyrrolo[2,1-f][1,2,4]triazin-5-yl]-2-fluorophenyl}-N′-[2-fluoro-5-(trifluoromethyl)phenyl]urea]: the concentration for half-maximal inhibition (IC50) with HCT116 cells and with MDA-MB-231 cells was 1.5 to 5 µM in each case.

The molecule `N#CCc1cn2ncnc(N)c2c1-c1ccc(NC(=O)Nc2cc(C(F)(F)F)ccn2)c(F)c1` [Example 255] displayed a half-maximal inhibitory concentration (IC50) with HCT116 cells of 1.5 to 5 µM. In the assay with MDA-MB-231 cells, this molecule had a pIC50 below 6.30 and an IC50 below 1.5 µM.

In the assay with HCT116 cells, `N#Cc1cn2ncnc(N)c2c1-c1ccc(NC(=O)Nc2cc(C(F)(F)F)ccc2F)c(F)c1` [Example 256, N-[4-(4-amino-6-cyanopyrrolo[2,1-f][1,2,4]triazin-5-yl)-2-fluorophenyl]-N′-[2-fluoro-5-(trifluoromethyl)phenyl]urea] had a pIC50 below 6.30 and an IC50 below 1.5 µM. Moreover, in the assay on MDA-MB-231 cells, the pIC50 was below 6.30 and the IC50 is below 1.5 µM.

As to `Nc1ncnn2cc(-c3nc(CN4CCOCC4)co3)c(-c3ccc(NC(=O)Nc4cc(C(F)(F)F)ccc4F)cc3)c12` [Example 257, N-(4-{4-amino-6-[4-(morpholin-4-ylmethyl)-1,3-oxazol-2-yl]pyrrolo[2,1-f][1,2,4]triazin-5-yl}phenyl)-N′-[2-fluoro-5-(trifluoromethyl)phenyl]urea], in the assay with HCT116 cells, the pIC50 was below 6.30 and the IC50 is below 1.5 µM. In the assay with MDA-MB-231 cells, this molecule showed a negative logarithm of the IC50 (pIC50) below 6.30 and an IC50 below 1.5 µM.

In general, inhibition refers to the relative decrease from the control value, in per cent. Higher therefore signals a strong effect. As usually defined, the pIC50 is the IC50 on a negative log10 scale, so that one unit is a factor of ten. For orientation: IC50 means the concentration at which inhibition is half-maximal. Low values mean inhibition by little substance, high ones a need for much substance.
